Assay results reported in PubChem BioAssay AID1963597 (National Center for Advancing Translational Sciences (NCATS), 2024).

What follows are molecules tested on human liver microsomes, metabolic stability half-life (assay: NCATS Human Liver Microsomal (HLM) Stability Profiling). Details: higher = more stable; screened at 1 µM (by protocol).
How it was run: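 Substrate depletion (in vitro t1/2): 1 µM compound with 0.5 mg/mL microsomes and NADPH regenerating system, phosphate buffer pH 7.4, 37 °C. Sampled at 0, 5, 10, 15, 30, 60 min into cold acetonitrile with albendazole internal standard for MS quantification.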

First: COc1ccc(NC(=O)Cn2ccn(-c3ccc(C)c(C)c3)c(=O)c2=O)cc1Cl
Second: COc1ccc(-c2cn3cccnc3n2)cc1NC(=O)c1cc(C)cc(C)c1
The half-life of the first is higher: > 120 min for the first, 20.7 min for the second.

Cc1nc2c(C(F)(F)F)cccc2nc1-c1ccc(-c2cccc(S(C)(=O)=O)c2)cc1 and CS(=O)(=O)c1cccc(CNc2nc(Nc3ccc4c(c3)CCC(=O)N4)ncc2C(F)(F)F)c1 cannot be ordered by half-life: > 120 min for the first, > 120 min for the second.

COc1ccc(C2c3c(oc4ccc(Cl)cc4c3=O)C(=O)N2CCCN(C)C)cc1OC (stereo not drawn) and COc1cc2cc(CN3CCC(N(C)C)C3)c(-c3cccc(Cl)c3)nc2cc1OC (stereo not drawn) cannot be ordered by half-life: > 120 min for the first, > 120 min for the second.

Going from COc1ccc(NC(=O)Cn2cc(C(=O)c3cccs3)c3ccccc32)cc1 to O=C(Nc1c(-c2cccs2)nc2ccccn12)c1ccc(Cl)cc1, the half-life rises from 16.6 min to > 120 min.

C[C@@H](Oc1cc(-n2cnc3ccc(OC4CCN(C)CC4)cc32)sc1C(N)=O)c1ccccc1C(F)(F)F and CCCOC(C(=O)OC1CCN(C)CC1)(c1ccccc1)c1ccccc1 are within 1.5-fold of each other in half-life: 8.99 min for the first, 11.3 min for the second.

Compared with COP(=S)(OC)SCn1nnc2ccccc2c1=O, CCN1C(=O)NC(c2ccccc2)C1=O (stereo not drawn) is higher in half-life: 8.16 min for the first, > 120 min for the second.

Going from COc1ccc(CCNC(=O)CCc2c(C)c3cc4c(C)coc4cc3oc2=O)cc1 to Cc1cc(C)cc(NC(=O)Cc2ccc(OC(C)(C)C(=O)O)cc2)c1, the half-life rises from 5.41 min to > 120 min.

Going from Cc1ccccc1C(=O)Nc1ccc(C(=O)N2CCCC(O)c3cc(Cl)ccc32)c(C)c1 (stereo not drawn) to O=C(Nc1cccc(-c2nc3cc(Cl)ccc3o2)c1)c1ccccc1, the half-life falls from 13.9 min to 5.41 min (2.6-fold).

Compared with O=C1CC2(CCCC2)CC(=O)N1CCNC[C@H]1COc2ccccc2O1, CCOC(=O)[C@H](CCc1ccccc1)N[C@H]1CCCN2CCC[C@@H](C(=O)O)N2C1=O is 2-fold higher in half-life: 8.26 min for the first, 16.7 min for the second.

First: CCOC(=O)Cn1cccc1-c1nc(-c2ccc(OC)cc2)c(-c2ccc(OC)cc2)s1
Second: COc1ccc(-n2nc(CCC(=O)N(C)O)cc2-c2ccc(Cl)cc2)cc1
The half-life of the first is 41-fold lower: 0.96 min for the first, 39.1 min for the second.

First: CC(C)CC(N(C)C)C1(c2ccc(Cl)cc2)CCC1 (stereo not drawn)
Second: CC1=NOC2(CCN(Cc3ccc(C#N)cc3)C2)C1 (stereo not drawn)
The half-life of the first is lower: 3.57 min for the first, > 120 min for the second.

Going from Cc1ccc(Nc2nc(C)c(NC(=O)c3ccc(C)cc3)c(Nc3ccc(C)cc3)n2)cc1 to Cc1ccc2nc(-c3cc(NC(=O)c4ccc5c(c4)OCCO5)ccc3Cl)oc2c1, the half-life rises from 20.5 min to 63.3 min (3.1-fold).

First: COc1ccc(-n2nc(C3CCCN(CC4CCCCC4)C3)[nH]c2=O)cc1 (stereo not drawn)
Second: COc1ccc(C(=O)N2CCCC2=O)cc1
The half-life of the first is lower: 108 min for the first, > 120 min for the second.

Going from N#Cc1cccc(C(=O)Nc2cc(-c3ccccc3)nn2-c2ccccc2)c1 to Cc1nn2c(c1-c1ccccc1Oc1ccccc1)N(Cc1cccc(C#N)c1)CCC2, the half-life falls from 18.7 min to 0.77 min (24-fold).

Going from CCN(CC)Cc1cccc(/C=C/c2nc3ccc(F)cc3c(=O)n2-c2ccccc2Cl)n1 to Cc1ccccc1-n1c(SCc2ccc(Cl)cc2)nc2[nH]ncc2c1=O, the half-life rises from 25.8 min to 53.2 min (2.1-fold).

C1Cc2[nH]nc(-c3nn[nH]n3)c2C1 and CC(C)(C)NCc1cc(Nc2ccnc3cc(Cl)ccc23)c2c(c1O)CCCC2 cannot be ordered by half-life: > 120 min for the first, > 120 min for the second.

Compared with CCN(Cc1ccncc1)C(=O)[C@@H](CO)c1ccccc1, C#CCOC(C(=O)OCCN(C)C)(c1ccccc1)c1ccccc1 is lower in half-life: > 120 min for the first, 43.7 min for the second.

C[C@@H]1O[C@@H](OC[C@H]2O[C@@H](Oc3c(-c4ccc(O)c(O)c4)oc4cc(O)cc(O)c4c3=O)[C@H](O)[C@@H](O)[C@@H]2O)[C@H](O)[C@H](O)[C@H]1O and N#Cc1cn([C@@H]2O[C@H](CO)[C@H](O)[C@@H]2O)c2ncnc(N)c12 cannot be ordered by half-life: > 120 min for the first, > 120 min for the second.

Compared with COc1ccc(C2Sc3ccccc3N(CCN(C)C)C(=O)C2OC(C)=O)cc1 (stereo not drawn), CC(C)Oc1ccc2c(=O)c(-c3ccccc3)coc2c1 is 4.2-fold lower in half-life: 68.1 min for the first, 16.1 min for the second.

Cc1nc(NC(=O)N2CCCC2C(N)=O)sc1-c1ccnc(C(C)(C)C(F)(F)F)c1 (stereo not drawn) and O=C(NC1CC1)C1CCCN1C(=O)c1cccc(-c2ccccn2)c1 (stereo not drawn) cannot be ordered by half-life: > 120 min for the first, > 120 min for the second.

Compared with COc1cc2c(C(=O)N(C)c3cccc(C(F)(F)F)c3)cn(CC(C)C)c(=O)c2cc1OC, Cc1c(-c2ccnn2C)cc(C(=O)NCc2ccc(S(C)(=O)=O)cn2)c(=O)n1-c1cccc(C(F)(F)F)c1 is higher in half-life: 0.93 min for the first, > 120 min for the second.

CNC(=O)c1cnn(-c2nc(N)c3ncn([C@@H]4O[C@H](CO)[C@@H](O)[C@H]4O)c3n2)c1 and CCCn1cc2c(nc(NC(=O)Nc3ccc(OC)cc3)n3nc(-c4ccco4)nc23)n1 cannot be ordered by half-life: > 120 min for the first, > 120 min for the second.

First: CN1c2cc(C(=O)Nc3ccc(S(N)(=O)=O)cc3)ccc2C(=O)N2CCCCC21 (stereo not drawn)
Second: Cc1ccc(S(=O)(=O)Nc2ccccc2N2CCCCC2)cc1
The half-life of the first is 11-fold higher: 32.8 min for the first, 3.04 min for the second.

O=C(Cn1cc(SCc2cccc(Cl)c2)c2ccccc21)N1CCCCC1 and O=C(CCc1nnc2n(Cc3ccc(Cl)cc3)c(=O)c3ccccc3n12)NCCC1=CCCCC1 are within 1.5-fold of each other in half-life: 0.84 min for the first, 1.05 min for the second.

First: CN1C(C)(C)CCCC1(C)C
Second: Cc1coc2c1C(=O)C(=O)c1c-2ccc2c1CCCC2(C)C
The half-life of the first is higher: > 120 min for the first, 5.39 min for the second.

First: CCCCCC(=O)O[C@]1(C(C)=O)CC[C@H]2[C@@H]3CCC4=CC(=O)CC[C@]4(C)[C@H]3CC[C@@]21C
Second: CCCCCCCCC(=O)NCc1ccc(O)c(OC)c1
The half-life of the first is 2-fold lower: 1.86 min for the first, 3.71 min for the second.

First: Cc1ccc(S(=O)(=O)NC(=O)NC2CCCCC2)cc1
Second: CCCCNC(=O)NS(=O)(=O)c1ccc(C)cc1
The half-life of the first is higher: > 120 min for the first, 115 min for the second.

NC(=O)c1ccc(Cc2c(-c3cccc(-c4ccccc4)c3)[nH]n(-c3nc(C(=O)O)cs3)c2=O)cc1 and Cc1[nH]c(/C=C2\C(=O)Nc3cc(-c4ccccc4)ccc32)c(C)c1CCC(=O)O cannot be ordered by half-life: > 120 min for the first, > 120 min for the second.

O=C(O)c1cccc(-c2noc(-c3ccccc3F)n2)c1 and O=C(O)CN1C(=O)c2cccc3cccc(c23)C1=O cannot be ordered by half-life: > 120 min for the first, > 120 min for the second.

CN1CCN(c2cccc(Nc3nc4c(-c5ccc(S(C)(=O)=O)cc5)cccn4n3)c2)CC1 and N#Cc1ccc(-c2ccc(S(=O)(=O)Nc3cccc(N)n3)cc2)cc1 cannot be ordered by half-life: > 120 min for the first, > 120 min for the second.

First: O=C1CC[C@H](C(=O)N2CCCCC2)N1
Second: Cn1cc(-c2[nH]c3cc(NC(=O)[C@H](N)C4CCCCC4)cc4c3c2C=NNC4=O)cn1
The half-life of the first is higher: > 120 min for the first, 102 min for the second.

Compared with Cc1cc2c(cc1S(N)(=O)=O)S(=O)(=O)CCC2, NS(=O)(=O)c1cc2c(cc1Cl)NC(CSCc1ccccc1)=NS2(=O)=O is lower in half-life: > 120 min for the first, 29.2 min for the second.

First: COC(=O)c1ccc2c(C(=Nc3ccc(N(C)C(=O)CN4CCN(C)CC4)cc3)c3ccccc3)c(O)[nH]c2c1
Second: CCN1CCN(C(=O)c2ccc3c(c2)N(Cc2cc(C)ccc2C)C(=O)c2ccccc2S3(=O)=O)CC1
The half-life of the first is 40-fold higher: 49.1 min for the first, 1.24 min for the second.

Compared with CCOC(=O)c1c(C)nn(-c2cccc([N+](=O)[O-])c2)c1C, CCN(CC)CC(=O)Nc1c(C)cccc1C(=O)OC is 12-fold higher in half-life: 2.08 min for the first, 24 min for the second.

Going from C=CC(=O)Nc1cccc(CN2C(=O)N(c3c(Cl)c(OC)cc(OC)c3Cl)Cc3cnc(NCCCCN(CC)CC)nc32)c1 to CCN(CC)CCCCCCNc1cc(OC)cc2c(C)ccnc12, the half-life rises from 43 min to > 120 min.

C/C(=N/NC(=O)c1ccncc1)C(=O)O and O=C(N/N=C/C1C=CC([N+](=O)[O-])O1)c1ccc(O)cc1 (stereo not drawn) cannot be ordered by half-life: > 120 min for the first, > 120 min for the second.

Going from Nc1nc(NCC2CCC(CNS(=O)(=O)c3cccc4ccccc34)CC2)nc2ccccc12 (stereo not drawn) to CC(C)(C)Sc1c(CC(C)(C)C(=O)O)n(Cc2ccc(Cl)cc2)c2ccc(OCc3ccc4ccccc4n3)cc12, the half-life rises from 1.35 min to 34 min (25-fold).

C=CC(=O)N1CCN(C(=O)CNc2cc(-c3ccccc3Cl)c(Cl)cc2OC)CC1 and CCn1c(C(=O)NCc2ccccc2Cl)cc2sc(Cl)cc21 are within 1.5-fold of each other in half-life: 9.86 min for the first, 7.52 min for the second.

Compared with CNCCCC12CCC(c3ccccc31)c1ccccc12, CCOC(=O)C1(CCOc2ccccc2)CCN(Cc2ccc(O)c(Cl)c2)CC1 is lower in half-life: > 120 min for the first, 5.08 min for the second.

Compared with Cc1cccc(C)c1OCC(C)N (stereo not drawn), CC(C)CCCC(C)N (stereo not drawn) is higher in half-life: 114 min for the first, > 120 min for the second.

Going from O=S(=O)(O)c1cc(I)c(O)c2ncccc12 to CCOCc1cc(CN2CCN(c3cccc(C(F)(F)F)c3)CC2)c(O)c2ncccc12, the half-life falls from > 120 min to 12.6 min.

Going from O=C(N[C@@H](COc1ccc2[nH]c(=O)[nH]c2c1)c1ccccc1)c1cccn(Cc2ccc(F)c(F)c2)c1=O to COc1cc(C(c2c(C)[nH][nH]c2=O)c2c(C)[nH][nH]c2=O)ccc1OC(=O)c1ccccc1F, the half-life falls from 42.5 min to 1.83 min (23-fold).

Going from CCOC(=O)c1cc(=O)c2c(OCC(COc3cccc4oc(C(=O)OCC)cc(=O)c34)OC(=O)[C@@H](N)CCCCN)cccc2o1 to Cc1cc(C)cc(-c2cnc3cc(Cl)c(-c4cccc(O)c4)cc3c2OCCCN)c1, the half-life rises from 4.47 min to 25.3 min (5.7-fold).

Compared with C#CCN(C)CCCOc1ccc(Cl)cc1Cl, Cc1csc(NC(=O)c2ccc(COc3cccc(Cl)c3)o2)n1 is 4.2-fold higher in half-life: 3.52 min for the first, 14.9 min for the second.

First: CN1CCC(Nc2ncc3ncnc(Nc4ccc(F)c(Cl)c4)c3n2)CC1
Second: Cc1ccc(-c2c(-c3nn(C)c4ncnc(N5CCC(N6CCCCC6)C5)c34)cnn2C)cc1 (stereo not drawn)
The half-life of the first is lower: 116 min for the first, > 120 min for the second.

First: Cc1cccc(/C=N/Nc2cc(N3CCOCC3)n3nc(-c4ccncc4)cc3n2)c1
Second: Clc1cccc(C(c2ccc3nc[nH]c3c2)n2ccnc2)c1 (stereo not drawn)
The half-life of the first is lower: 23.1 min for the first, > 120 min for the second.

Going from CCN(CC)C(=O)C1CN2CCc3cc(OC)c(OC)cc3C2CC1OC(C)=O (stereo not drawn) to CC(=O)N1CCN([C@H]2CCN(C(=O)N(C)[C@H](C)c3cc(C(F)(F)F)cc(C(F)(F)F)c3)[C@@H](c3ccc(F)cc3C)C2)CC1, the half-life falls from > 120 min to 12.8 min.

CC(C)(C)Nc1nc(Nc2ccc(C(N)=O)cc2)cc(N)c1C#N and Nc1c(I)cc(I)c(C(=O)N(CCC(=O)O)c2ccccc2)c1I cannot be ordered by half-life: > 120 min for the first, > 120 min for the second.

First: Cc1ncc(Cl)cc1NCc1ccc(C(=O)NC(CC2CCCC2)C(=O)NC2CC2)s1 (stereo not drawn)
Second: c1ccc2c(c1)CCC[C@H]2C1=NCCN1
The half-life of the first is lower: 6.13 min for the first, > 120 min for the second.

Compared with OCc1ccccn1, CCCc1nn(C)c2c(=O)[nH]c(-c3cc(S(=O)(=O)N4CCN(C)CC4)ccc3OCC)nc12 is lower in half-life: > 120 min for the first, 18.7 min for the second.

Cn1cnc2c1c(=O)[nH]c(=O)n2C and COCC(=O)Nc1c(I)c(C(=O)NCC(O)CO)c(I)c(C(=O)N(C)CC(O)CO)c1I (stereo not drawn) are within 1.5-fold of each other in half-life: 60.4 min for the first, 84.2 min for the second.

COC(=O)/C=C\C(=O)OC was tested, and the half-life was > 120 min.
